Laboratory results published in patent publication US20220259593A1, “CONTROL OF MAMMALIAN GENE DOSAGE USING CRISPR” (The Regents of the University of California, priority 2019, published 2022).

Test system: K562 CRISPRi cells
Experiment: Perturb-seq pooled growth measurement (sgRNA counts, growth phenotype γ, relative activity)
Type: cell-based, human
Settings: sequencing read counts; for Perturb-seq pooled growth sgRNA counts, d5: 5 days of growth (day seven after transduction); for Perturb-seq pooled growth sgRNA counts, d10: 10 days of growth (day twelve after transduction); for Perturb-seq pooled growth sgRNA counts, T0: T0 = day two after transduction
Source text: Finally, we sought to use intermediate-activity sgRNAs to explore relationships between expression levels of various genes and the resulting cellular phenotypes. To simultaneously measure gene expression levels and obtain rich phenotypes for a variety of sgRNA series, we used Perturb-seq, an experimental strategy that enables matched capture of the transcriptome and the identity of an expressed sgRNA for each individual cell in pools of cells (27, 31-33) (FIG. 12A). […] In addition to the single-cell transcriptomes, we measured bulk growth phenotypes conferred by sgRNAs in these cells.
To measure the growth rate defects conferred by each sgRNA for comparison with the transcriptional phenotypes, samples of 500,000 transduced cells were taken from the same transduced cell population used in the Perturb-seq experiment on days two, seven, and twelve after transduction. Genomic DNA was extracted using the Nucleospin Blood kit (Macherey-Nagel) and sgRNA amplicons were prepared as described previously and above (19), albeit with no genomic DNA digestion or gel purification, and sequenced on HiSeq 4000 as described above for the other screens. Growth phenotypes were calculated by comparing normalized sgRNA abundances at day seven and twelve to those at day two, as described above. […] Relative sgRNA activities measured at day seven (five days of growth) were used to assign sgRNA activities in further analysis.

Substance: GATA1_−_48645022.23-P1P2_00: sgRNA targeting GATA1, GTGAGCTTGCCACATCCCCA, SEQ ID NO: 119 (listed as DNA, chemistry not fully specified)
- Perturb-seq pooled growth sgRNA counts, d5: 955
- Perturb-seq pooled growth sgRNA counts, d10: 757
- Perturb-seq pooled growth sgRNA counts, T0: 5712

Substance: GATA1_−_48645022.23-P1P2_03: sgRNA targeting GATA1, GTGCGCTTGCCACATCCCCA, SEQ ID NO: 120 (listed as DNA, chemistry not fully specified)
- Perturb-seq pooled growth sgRNA counts, d5: 1927
- Perturb-seq pooled growth sgRNA counts, d10: 1534
- Perturb-seq pooled growth sgRNA counts, T0: 12276

Substance: GATA1_−_48645022.23-P1P2_04: sgRNA targeting GATA1, GTGAGCTTACCACATCCCCA, SEQ ID NO: 121 (listed as DNA, chemistry not fully specified)
- Perturb-seq pooled growth sgRNA counts, d5: 860
- Perturb-seq pooled growth sgRNA counts, d10: 668
- Perturb-seq pooled growth sgRNA counts, T0: 4714

Substance: GATA1_−_48645022.23-P1P2_06: sgRNA targeting GATA1, GTGAGCTTGCGACATCCCCA, SEQ ID NO: 123 (listed as DNA, chemistry not fully specified)
- Perturb-seq pooled growth sgRNA counts, d5: 5580
- Perturb-seq pooled growth sgRNA counts, d10: 5489
- Perturb-seq pooled growth sgRNA counts, T0: 9440

Substance: GATA1_−_48645022.23-P1P2_08: sgRNA targeting GATA1, GTGAGCTTTCCACATCCCCA, SEQ ID NO: 122 (listed as DNA, chemistry not fully specified)
- Perturb-seq pooled growth sgRNA counts, d5: 2043
- Perturb-seq pooled growth sgRNA counts, d10: 1873
- Perturb-seq pooled growth sgRNA counts, T0: 7028

Substance: GATA1_−_48645022.23-P1P2_12: sgRNA targeting GATA1, GTGAGCTTGCCACATCCGCA, SEQ ID NO: 124 (listed as DNA, chemistry not fully specified)
- Perturb-seq pooled growth sgRNA counts, d5: 7289
- Perturb-seq pooled growth sgRNA counts, d10: 11548
- Perturb-seq pooled growth sgRNA counts, T0: 4081

Substance: GINS1_−_25388381.23-P1P2_00: sgRNA targeting GINS1, GGACTAGAACGAAAGGAGTG, SEQ ID NO: 93 (listed as DNA, chemistry not fully specified)
- Perturb-seq pooled growth sgRNA counts, d5: 547
- Perturb-seq pooled growth sgRNA counts, d10: 280
- Perturb-seq pooled growth sgRNA counts, T0: 3621

Substance: GINS1_−_25388381.23-P1P2_03: sgRNA targeting GINS1, GGACTATAACGAAAGGAGTG, SEQ ID NO: 96 (listed as DNA, chemistry not fully specified)
- Perturb-seq pooled growth sgRNA counts, d5: 2982
- Perturb-seq pooled growth sgRNA counts, d10: 2755
- Perturb-seq pooled growth sgRNA counts, T0: 9799

Substance: GINS1_−_25388381.23-P1P2_06: sgRNA targeting GINS1, GGACTAGAACGGAAGGAGTG, SEQ ID NO: 95 (listed as DNA, chemistry not fully specified)
- Perturb-seq pooled growth sgRNA counts, d5: 1828
- Perturb-seq pooled growth sgRNA counts, d10: 1219
- Perturb-seq pooled growth sgRNA counts, T0: 11452

Substance: GINS1_−_25388381.23-P1P2_08: sgRNA targeting GINS1, GGACTAGAGCGAAAGGAGTG, SEQ ID NO: 94 (listed as DNA, chemistry not fully specified)
- Perturb-seq pooled growth sgRNA counts, d5: 2461
- Perturb-seq pooled growth sgRNA counts, d10: 1756
- Perturb-seq pooled growth sgRNA counts, T0: 18173

Substance: GINS1_−_25388381.23-P1P2_14: sgRNA targeting GINS1, GGACTAGAACGAAAGGAGCG, SEQ ID NO: 97 (listed as DNA, chemistry not fully specified)
- Perturb-seq pooled growth sgRNA counts, d5: 5833
- Perturb-seq pooled growth sgRNA counts, d10: 6093
- Perturb-seq pooled growth sgRNA counts, T0: 6443

Substance: GNB2L1_+_180670873.23-P1P2_00: sgRNA targeting GNB2L1, GTGCAAGGCGGCGGCAGGAG, SEQ ID NO: 55 (listed as DNA, chemistry not fully specified)
- Perturb-seq pooled growth sgRNA counts, d5: 2456
- Perturb-seq pooled growth sgRNA counts, d10: 1685
- Perturb-seq pooled growth sgRNA counts, T0: 2280

Substance: GNB2L1_+_180670873.23-P1P2_02: sgRNA targeting GNB2L1, GTGCAAGACGGCGGCAGGAG, SEQ ID NO: 59 (listed as DNA, chemistry not fully specified)
- Perturb-seq pooled growth sgRNA counts, d5: 6216
- Perturb-seq pooled growth sgRNA counts, d10: 7618
- Perturb-seq pooled growth sgRNA counts, T0: 3839

Substance: GNB2L1_+_180670873.23-P1P2_07: sgRNA targeting GNB2L1, GTGCAAGGCGGGGGCAGGAG, SEQ ID NO: 58 (listed as DNA, chemistry not fully specified)
- Perturb-seq pooled growth sgRNA counts, d5: 8322
- Perturb-seq pooled growth sgRNA counts, d10: 8738
- Perturb-seq pooled growth sgRNA counts, T0: 9894

Substance: GNB2L1_+_180670873.23-P1P2_08: sgRNA targeting GNB2L1, GTGCAAGGTGGCGGCAGGAG, SEQ ID NO: 56 (listed as DNA, chemistry not fully specified)
- Perturb-seq pooled growth sgRNA counts, d5: 25247
- Perturb-seq pooled growth sgRNA counts, d10: 17083
- Perturb-seq pooled growth sgRNA counts, T0: 24451

Substance: GNB2L1_+_180670873.23-P1P2_13: sgRNA targeting GNB2L1, GTGCAAGGCGGCGGCGGGAG, SEQ ID NO: 57 (listed as DNA, chemistry not fully specified)
- Perturb-seq pooled growth sgRNA counts, d5: 6350
- Perturb-seq pooled growth sgRNA counts, d10: 5991
- Perturb-seq pooled growth sgRNA counts, T0: 4708

Substance: HSPA5_+_128003624.23-P1P2_00: sgRNA targeting HSPA5, GAGCCGAGTAGGCGACGGTG, SEQ ID NO: 88 (listed as DNA, chemistry not fully specified)
- Perturb-seq pooled growth sgRNA counts, d5: 1756
- Perturb-seq pooled growth sgRNA counts, d10: 2176
- Perturb-seq pooled growth sgRNA counts, T0: 5785

Substance: HSPA5_+_128003624.23-P1P2_01: sgRNA targeting HSPA5, GAACCGAGTAGGCGACGGTG, SEQ ID NO: 91 (listed as DNA, chemistry not fully specified)
- Perturb-seq pooled growth sgRNA counts, d5: 3124
- Perturb-seq pooled growth sgRNA counts, d10: 3812
- Perturb-seq pooled growth sgRNA counts, T0: 7580

Substance: HSPA5_+_128003624.23-P1P2_04: sgRNA targeting HSPA5, GAGCCGAGAAGGCGACGGTG, SEQ ID NO: 89 (listed as DNA, chemistry not fully specified)
- Perturb-seq pooled growth sgRNA counts, d5: 3304
- Perturb-seq pooled growth sgRNA counts, d10: 4282
- Perturb-seq pooled growth sgRNA counts, T0: 11091

Substance: HSPA5_+_128003624.23-P1P2_06: sgRNA targeting HSPA5, GAGCCGAGTAGACGACGGTG, SEQ ID NO: 92 (listed as DNA, chemistry not fully specified)
- Perturb-seq pooled growth sgRNA counts, d5: 17649
- Perturb-seq pooled growth sgRNA counts, d10: 23714
- Perturb-seq pooled growth sgRNA counts, T0: 10180

Substance: HSPA5_+_128003624.23-P1P2_08: sgRNA targeting HSPA5, GAGCCGAGTGGGCGACGGTG, SEQ ID NO: 90 (listed as DNA, chemistry not fully specified)
- Perturb-seq pooled growth sgRNA counts, d5: 3005
- Perturb-seq pooled growth sgRNA counts, d10: 3487
- Perturb-seq pooled growth sgRNA counts, T0: 10148

Substance: HSPA9_−_137911079.23-P1P2_00: sgRNA targeting HSPA9, GGAGCTGCGCGATGCGGTGG, SEQ ID NO: 131 (listed as DNA, chemistry not fully specified)
- Perturb-seq pooled growth sgRNA counts, d5: 944
- Perturb-seq pooled growth sgRNA counts, d10: 835
- Perturb-seq pooled growth sgRNA counts, T0: 5450

Substance: HSPA9_−_137911079.23-P1P2_02: sgRNA targeting HSPA9, GGAGTTGCGCGATGCGGTGG, SEQ ID NO: 133 (listed as DNA, chemistry not fully specified)
- Perturb-seq pooled growth sgRNA counts, d5: 1727
- Perturb-seq pooled growth sgRNA counts, d10: 1872
- Perturb-seq pooled growth sgRNA counts, T0: 4345

Substance: HSPA9_−_137911079.23-P1P2_04: sgRNA targeting HSPA9, GGAGCTGCGCAATGCGGTGG, SEQ ID NO: 135 (listed as DNA, chemistry not fully specified)
- Perturb-seq pooled growth sgRNA counts, d5: 9346
- Perturb-seq pooled growth sgRNA counts, d10: 10829
- Perturb-seq pooled growth sgRNA counts, T0: 6754

Substance: HSPA9_−_137911079.23-P1P2_07: sgRNA targeting HSPA9, GGAGCTGCGGGATGCGGTGG, SEQ ID NO: 132 (listed as DNA, chemistry not fully specified)
- Perturb-seq pooled growth sgRNA counts, d5: 1513
- Perturb-seq pooled growth sgRNA counts, d10: 1463
- Perturb-seq pooled growth sgRNA counts, T0: 5941

Substance: HSPA9_−_137911079.23-P1P2_08: sgRNA targeting HSPA9, GGAGCTGCTCGATGCGGTGG, SEQ ID NO: 134 (listed as DNA, chemistry not fully specified)
- Perturb-seq pooled growth sgRNA counts, d5: 2803
- Perturb-seq pooled growth sgRNA counts, d10: 2726
- Perturb-seq pooled growth sgRNA counts, T0: 3137

Substance: HSPE1_+_198365089.23-P1P2_00: sgRNA targeting HSPE1, GGAGACTCGCAGTCCGGCCC, SEQ ID NO: 9 (listed as DNA, chemistry not fully specified)
- Perturb-seq pooled growth sgRNA counts, d5: 2348
- Perturb-seq pooled growth sgRNA counts, d10: 1179
- Perturb-seq pooled growth sgRNA counts, T0: 6813

Substance: HSPE1_+_198365089.23-P1P2_01: sgRNA targeting HSPE1, GGAGACACGCAGTCCGGCCC, SEQ ID NO: 65 (listed as DNA, chemistry not fully specified)
- Perturb-seq pooled growth sgRNA counts, d5: 4228
- Perturb-seq pooled growth sgRNA counts, d10: 2663
- Perturb-seq pooled growth sgRNA counts, T0: 9669
